In US20140302556A1, “CONTROLLING O-GLYCOSYLATION IN LOWER EUKARYOTES” (priority 2011, published 2014):

Legend:
[1] = system: Pichia pastoris mutant strain YGLY17156; experiment: Growth on YSD agar plates containing PMTi-4; format: cell-based; settings: agar plate, 24° C.
[2] = system: Pichia pastoris mutant strain YGLY17157; experiment: Growth on YSD agar plates containing PMTi-4; format: cell-based; settings: agar plate, 24° C.
Protocol: (§1) UV mutagenesis was performed as described by Winston (Curr. Protoc. Mol. Biol. 82:13.3B.1-13.3B.5 (2008)). Briefly, Pichia pastoris strain YGLY19376 (GFI5.0, pmt4Δ, expressing a recombinant IgG1) was grown in 40 mL YSD liquid medium over night at 24° C. Upon reaching an OD600 of five, a 10 mL aliquot of culture was transferred into an empty 100 mm sterile Petri dish, and treated, with the lid off, with 12 mJ/cm^2 of UV irradiation. After the UV treatment, the Petri dish was immediately covered with aluminum foil (to prevent photo-induced DNA repair). The mutagenized cells were allowed to recover at 24° C. for three hours in the dark. Two mL of the recovered YGLY19376 was then centrifuged at 2,000 rpm for five minutes. The cell pellet was then re-suspended in 400 μL 2% BMGY media and subsequently plated onto YSD agar plates containing 2 μg/mL or 4 μg/mL PMTi-4 PMT inhibitor (Example 4 compound of U.S. Published Application No. 20110076721 having the structure
After seven days incubation at 24° C., colonies were picked and re-streaked onto fresh PMTi-4-containing plates at the above concentrations.

[3] = system: un-mutagenized YGLY19376 parent strain; experiment: Growth on agar plates containing PMT inhibitor; format: cell-based, Pichia pastoris; settings: agar plate
Protocol: as §1

[4] = system: non-mutagenized parent strain YGLY19376; experiment: 1 L DasGip MeOH fed-batch fermentation with PMTi-4 (lysis, IgG1 titer, glycans); format: cell-based, Pichia pastoris
Protocol: (§2) Fed-batch fermentations, IgG1 purifications, characterization of N- and O-glycan profiles as well as all other analytical assays, were performed essentially as previously described (Barnard et al., J. Ind. Microbiol. Biotechnol. 37(9): 961-71 (2010); Potgieter et al., J. Biotechnol. 139(4):318-25 (2009)).
(§3) Both PMT inhibitor-resistant mutant strains (YGLY17156 and YGLY17157), as well as the non-mutagenized parent strain YGLY19376 were grown in 1 L DasGip fermentors using a standard MeOH fed-batch fermentation protocol (See for example, Potgieter et al., J. Biotechnol. 139(4): 318-25 (2009) and Hopkins et al., Glycobiol. August 12. [Epub ahead of print] PubMed PMID: 21840970 (2011)).
(§4) The robustness of the strains was determined by examining the fermentation cell cultures under microscope. Depending on the proportion of cell debris, a lysis-score was assigned from 0.5 to 5, with 5 being the worst lysis.
The inoculum seed flasks were inoculated from yeast patches (isolated from a single colony) on agar plates into 0.1 L of 4% BSGY in a 0.5-L baffled flask. Seed flasks were grown at 180 rpm and 24° C. (Innova 44, New Brunswick Scientific) for 48 hours. Cultivations were done in 1 L (fedbatch-pro, DASGIP BioTools) bioreactors. Vessels were charged with 0.54 L of 0.22 μm filtered 4% BSGY media and autoclaved at 121° C. for 45 minutes. […]

[5] = system: PMTi-4-resistant mutant strain YGLY17156; experiment: 1 L DasGip MeOH fed-batch fermentation with PMTi-4 (lysis, WCW, IgG1 titer, glycans); format: cell-based, Pichia pastoris
Protocol: as §2, §3, §4
(§5) The inoculum seed flasks were inoculated from yeast patches (isolated from a single colony) on agar plates into 0.1 L of 4% BSGY in a 0.5-L baffled flask. Seed flasks were grown at 180 rpm and 24° C. (Innova 44, New Brunswick Scientific) for 48 hours. Cultivations were done in 1 L (fedbatch-pro, DASGIP BioTools) bioreactors. Vessels were charged with 0.54 L of 0.22 μm filtered 4% BSGY media and autoclaved at 121° C. for 45 minutes. After sterilization and cooling; the aeration, agitation and temperatures were set to 0.7 vvm, 400 rpm and 24° C. respectively. The pH was adjusted to and controlled at 6.5 using 30% ammonium hydroxide. Inoculation of a prepared bioreactor occurred aseptically with 60 mL from a seed flask. Agitation was ramped to maintain 20% dissolved oxygen (DO) saturation. After the initial glycerol charge was consumed, denoted by a sharp increase in the dissolved oxygen, a 50% w/w glycerol solution containing 5 mg/L biotin and 32.3 mg/L PMTi4 was triggered to feed at 3.68 mL/hr for eight hours. During the glycerol fed-batch phase 0.375 mL of PTM2 salts were injected manually. Completion of the glycerol fed-batch was followed by a 0.5 hour starvation period and initiation of the induction phase. A continuous feed of a 50% v/v methanol solution containing 2.5 mg/L biotin and 6.25 mL/L PTM2 salts was started at a flat rate of 2.16 mL/hour. Injections of 0.25 mL of 1.9 mg/mL PMTi-4 (in methanol) were added after each 24 hours of induction. In general, individual fermentations were harvested within 36-110 hours of induction. The culture broth was clarified by centrifugation (Sorvall Evolution RC, Thermo Scientific) at 8500 rpm for 40 min and the resulting supernatant was submitted for purification.

[6] = system: PMTi-4-resistant mutant strain YGLY17157; experiment: as above; format: cell-based, Pichia pastoris
Protocol: as §2, §3, §4, §5

SMILES: CC(C)COCC(Oc1cc(/C=C2\SC(=S)N(CC(=O)O)C2=O)ccc1OCCc1ccc(F)cc1)c1ccccc1 (stereo not drawn) [PMTi-4]
- PMTi-4 concentration at which robust growth is exhibited [1]: at least 4 μg/mL
- PMTi-resistance level [2]: at least 1 μg/mL
- PMT inhibitor concentration at which strain failed to grow [3]: ≤ 0.1 µg/mL
- O-glycan Occupancy (mannitol/protein) ([4]; IgG1): 1.0 mol/mol
- Lysis at 24° C. Day 2 ([4]; lysis-score 0.5 to 5, 5 worst): 3
- O-glycan Occupancy (mannitol/protein) ([5]; IgG1): 2.4 mol/mol
- Lysis at 24° C. Day 1 ([5]; lysis-score 0.5 to 5, 5 worst): 0.5
- Lysis at 24° C. Day 3 ([5]; lysis-score 0.5 to 5, 5 worst): 1
- Lysis at 24° C. Day 4 ([5]; lysis-score 0.5 to 5, 5 worst): 1.5
- WCW Day 4 ([5]; wet cell weight): 236
- O-glycan Occupancy (mannitol/protein) ([6]; IgG1): 0.6 mol/mol
- Lysis at 24° C. Day 1 ([6]; lysis-score 0.5 to 5, 5 worst): 0.5
- Lysis at 24° C. Day 3 ([6]; lysis-score 0.5 to 5, 5 worst): 1
- Lysis at 24° C. Day 4 ([6]; lysis-score 0.5 to 5, 5 worst): 1
- WCW Day 4 ([6]; wet cell weight): 303
